{"source": "paper PMC6006164", "about": "“Natural cyclopeptide RA-V inhibits the NF-κB signaling pathway by targeting TAK1” (Cell Death & Disease, 2018)", "key": {"[1]": {"tested_on": "NF-κB signaling pathway", "experiment": "NF-κB-dependent luciferase reporter (5×κB-luciferase/pTK-Renilla), TNF-α-induced, HEK293T cells", "assay_type": "cell-based", "conditions": "HEK293T; RA-V 6 h, then 10 ng/mL TNF-α 2 h; three independent experiments; read-out: IC50, NF-κB-dependent luciferase reporter", "experimental": "HEK293T or HeLa cells were seeded in 24-well plates and transiently transfected with the 5 × κB-luciferase and pTK-Renilla reporters using Lipofectamine 2000 (Invitrogen) for 18 h. The cells were then incubated with different concentrations of the compounds for the indicated times and subsequently stimulated with 10 ng/mL TNF-α for 2 h. The luciferase activity in the cell lysates was analyzed using the Dual Luciferase Reporter Assay System (Promega). The luciferase reporter assays were performed as previously described.\nSupplementary Figure 1. RA-V has the best inhibitory effect on NF-κB signaling pathway among RAs. (a-b) HEK293T cells were transfected with the 5×κB-luciferase and pTK-Renilla reporters. Twenty-four hours after transfection, the cells were incubated with various concentrations of the indicated compounds for 6 h and then treated with 10 ng/ml TNF-α for 2 h before the luciferase activity assays. The data are presented as the means ± S.D. from three independent experiments. […]\nScheme for CB12 synthesis. (c) CB12 inhibited NF-κB reporter activity in a dose-dependent manner. The HEK293T cells were transfected with the 5×κB-luciferase and pTK-Renilla reporters. Twenty-four h after transfection, the cells were treated with various concentrations of CB12 for 6 h and then treated with 10 ng/ml TNF-α for 2 h before the luciferase activity assays. (d) […]\nSupplementary Table 3: Screening data of small molecules\nCategory Parameter Description\nAssay Type of assay Cell-based\nTarget NF-κB signaling pathway\nPrimary measurement Detection of Firefly luciferase enzyme activities and Renilla Luciferase expression\nKey reagents 5 × κB-lucieferase and luciferase assay (Progema)\nAssay protocol HEK293T cells were seeded in 24 -well plates and transiently transfected with 20 ng of 5×κB-luciferase and 2 ng of pTK-Renilla reporters using Lipofectamine\n2000 (Invitrogen) for 18 h. The cells were then incubated with small molecules (10 μM) for 6 hours, and subsequently stimulated with 10 ng/ml TNF -α for 2 h. Luciferase activity of the cell lysates was analysed by the Dual Luciferase Reported Assay System\n(Promega). The Firefly luciferase enzyme activities were determined for NF -κB signaling activities and normalized to Renilla Luciferase expression.\nLibrary Library size approximately 200\nLibrary composition natural and synthetic chemical compounds, including cyclopeptides, quinones and terpenes.\nSource State Key Laboratory of Phytochemistry and Plant\nResources in West China, Kunming Institute of Botany, Chinese Academy of Sciences\nScreen Format 24-well, Corning\nConcentration(s) tested 10 μM\nReagent/ compound dispensing system Manual\nDetection instrument and software Synergy 2 (BioTek)\nAssay validation/QC Velcade inhibits NF-κB signaling pathway\nNormalization The Firefly luciferase enzyme activities were normalized by Renilla Luciferase expression\nPost-HTS analysis Hit criteria κB-luc/ Renilla ratio < 0.5 standard deviations from the […]\nHit rate Approximately 15%\nConfirmation of hit purity and structure Compounds were verified by HPLC and NMR"}, "[2]": {"tested_on": "p65 phosphorylation and IκBα phosphorylation", "experiment": "Western blot in HEK293T cells transfected with TRAF2, MyD88 or IKKβ", "assay_type": "cell-based", "conditions": "RA-V 48 h", "experimental": "To determine where RA-V acts in this pathway, TRAF2, MyD88, IKKβ, or p65 plasmid was transiently transfected into HEK293T cells together with the 5 × κB-lucieferase and pTK-Renilla reporters. […] Western blots were performed to investigate the effect of RA-V on NF-κB-associated proteins in HEK293T cells transfected with the TRAF2, MyD88, or IKKβ plasmid. […] Moreover, we used a computational method to predict where RA-V is likely to act in this pathway.\nFig. 3 RA-V represses NF-κB activation upstream of the IKK protein complex. a RA-V inhibited the TRAF2- and MyD88-induced expression of the NF-κB reporter in a dose-dependent manner. The indicated plasmids were transfected into HEK293T cells together with the 5 × κB-luciferase and pTK-Renilla reporters. Twenty-four hours after transfection, the cells were incubated with various concentrations of RA-V for 48 h before luciferase assays were performed. b RA-V inhibited TRAF2- and MyD88-induced p65 phosphorylation and IκBα phosphorylation in a dose-dependent manner. […]\nFor western blot analysis, the samples were equally subjected to sodium dodecyl sulfate polyacrylamide gel electrophoresis (SDS-PAGE) and transferred to polyvinylidene difluoride membranes (Millipore). […] The protein bands were detected with the SuperSignal West Pico Chemiluminescent Substrate (Pierce)."}}, "data": [{"substance": "RA-V", "values": [{"measurement": "IC50", "setting": "[1]", "value": 64.6, "unit": "nM"}, {"measurement": "p65 and IκBα phosphorylation in cells transfected with IKKβ plasmid", "setting": "[2]", "value": "no effect"}, {"measurement": "p65 phosphorylation and IκBα phosphorylation in cells overexpressing TRAF2 or MyD88", "setting": "[2]", "value": "dose-dependently inhibited"}]}]}
